Each structure is given as a SMILES string. pIC50: −log10 of the molar value. Several values for one entry are separate records, joined by “and”; a condition that tells them apart may be missing. Equal values may be shown once.

For this assay, the system named is 857933-349-R-J2-PDC complex spheroid viability. Description: Anticancer human tumor 857933-349-R-J2-PDC patient-derived colon adenocarcinoma cell line growth inhibition [POLQ]. The conditions noted are these: for viability, T/C: stronger effect = lower value. The method, then:
Multicellular complex tumor spheroid response to Polymerase (POL) inhibitors (novobiocin, ART-558, RP6685) in combination with a variety of drugs and investigational agents in selected tumor cell lines
The POL inhibitors (novobiocin, ART-558, and RP6685) were evaluated both individually and in combination with standard of care and investigational anticancer small molecules within a complex spheroid model of solid tumors. . Complex spheroids include a stromal component modeled by human endothelial cells (HUVEC) and fibroblasts modeled by human mesenchymal stem cells (MSCs). The concentration ranges selected for each drug and investigational agent were based upon clinically achievable concentrations if the clinical Cmax of the agent was known.
Compounds. The drugs and investigational agents: novobiocin (NSC847541), ART-558 (NSC835418), RP-6685 (NSC848927), peposertib (NSC802822), ceralasertib (NSC780249), elimusertib (NSC800525), camonsertib (NSC841442), AZD-1390 (NSC803789), olaparib (NSC753686), talazoparib (NSC767125), rucaparib (NSC756644), sotorasib (NSC818433), MRTX-1133 (NSC836407), SN-38 (NSC673596), topotecan (NSC609699), epotoside (NSC141540), doxorubicin (NSC123127), gemcitabine (NSC613327), 5-fluorouracil (NSC19893), paclitaxel (NSC125973), vemurafenib (NSC761431), MSA-2 (NSC828583), SN-011 (NSC837082), adavosertib (NSC754352), prexasertib (NSC758257), carboplatin (NSC241240) and oxaliplatin (NSC266046), were obtained from the National Cancer Institute (NCI) Developmental Therapeutics Program Chemical Repository (21). The FDA-approved anticancer drug set is available from the Developmental Therapeutics Program at https://dtp.cancer.gov/organization/dscb/obtaining/. […] The stock solutions were prepared in dimethyl sulfoxide (DMSO, Sigma-Aldrich, St. Louis, MO, cat. D2650), except for the platinum compounds which were prepared in saline (Quality Biological, Gaithersburg, MD, cat. 114-055-101), at 800-fold the tested concentration and stored at -70 degrees C prior to their use. All drugs and investigational agents were tested over a range starting from a high concentration at or near the clinical Cmax and decreasing in half-log increments. If the clinical Cmax for an agent had not been determined, the highest concentration tested was 10 microM, except for SN-38, which was tested at a high concentration of 1 microM.
Cell Culture. All cells were maintained in an incubator at 37 degrees C and 5% CO2 with 95% humidity. The PDC lines were cultured according to standard operating procedures established by the NCI PDMR (https://pdmr.cancer.gov). Table 3 of the manuscript, lists the cell lines along with the number of the three cell types plated to form the mct-spheroids and media for tumor cell growth. After thawing, all PDC lines, except 997537-175-T-J1-PDC and 415267-285-R-J2-PDC, were cultured in Matrigel-coated flasks prepared with a working solution of 1X Ham's F-12 nutrient mix, without supplementation (Thermo Fisher Scientific, cat. 11765054), 100 U/mL penicillin-streptomycin (Thermo Fisher Scientific, cat. 15140122), and 2.5% Matrigel (Corning Inc., Corning, NY, cat. 354248) for the first three passages. The two PDC lines 997537-175-T-J1-PDC and 415267-285-R-J2-PDC were cultured on uncoated flasks. The 857933-349-R-J2-PDC line was cultured in 6C/Colon 1B media containing advanced DMEM/F-12 (Thermo Fisher Scientific, cat. 12634028), 10 mM HEPES (Thermo Fisher Scientific, cat. 15630080), 1X GlutaMAX supplement (Thermo Fisher Scientific, cat. 35050061), 0.1 mg/mL primocin (InvivoGen, San Diego, CA, cat. ant-pm-2), 10% defined fetal bovine serum, heat inactivated (HyClone Laboratories Inc., Logan, UT, cat. SH30070.03HI), 50% L-WRN conditioned media (ATCC, cat. CRL-3276), 1.25 mM N-Acetyl-L-cysteine (Sigma-Aldrich, cat. A9165), 10 mM nicotinamide (Sigma-Aldrich, cat. N0636), 1X B-27 supplement (Thermo Fisher Scientific, cat. 17504044), 1X N-2 supplement (Thermo Fisher Scientific, cat. […]
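Further: spheroids exposed to compounds for seven days before readout.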

As a reminder, the viability, T/C is the ratio of treated to control. What is called pIC50 is −log10 of the IC50, conventionally taken in molar units. Regarding `CC(=O)O[C@H]1C(=O)[C@@]2(C)[C@H]([C@H](OC(=O)c3ccccc3)[C@]3(O)C[C@H](OC(=O)[C@H](O)[C@@H](NC(=O)c4ccccc4)c4ccccc4)C(C)=C1C3(C)C)[C@]1(OC(C)=O)CO[C@@H]1C[C@@H]2O`, the viability, T/C runs as follows: (compound 0.00949 µM) 40.3% and 50.5% and 65.1%; (compound 0.03 µM) 15.2% and 21.8% and 27.1%; (compound 0.0949 µM) 9.46% and 11.5% and 16.2%; (compound 0.3 µM) 12.5% and 11.3% and 21.3%; (compound 0.949 µM) 11.2% and 14.4% and 17%; (compound 3 µM) 12.1% and 16.1% and 21.9%. In addition, the pIC50 (curve of compound) is > 8.02 and 8.02 and 7.82.
`CC1COCCN1c1cc(C2(S(C)(=N)=O)CC2)nc(-c2ccnc3[nH]ccc23)n1` (stereo not drawn): the viability, T/C is 87.6% and 102% and 103% (compound 0.0316 µM); 88.4% and 105% and 117% (compound 0.1 µM); 101% (2×) and 81.7% (compound 0.316 µM); 77.9% and 69% and 76.1% (compound 1 µM); 59.6% and 68.9% and 62.7% (compound 3.16 µM); 33.2% and 55.2% and 42.2% (compound 10 µM). Moreover, where the note is “curve of compound”, the pIC50 was 5.33 and < 5.00 and 5.20.
As for `CC(C)n1c(=O)n(C)c2cnc3cc(F)c(-c4ccc(OCCCN5CCCCC5)nc4)cc3c21` + COC1C(OC(N)=O)C(O)C(Oc2ccc3c(O)c(NC(=O)c4ccc(O)c(CC=C(C)C)c4)c(=O)oc3c2C)OC1(C)C, the negative logarithm of the IC50 (pIC50) (curve of first compound, second compound 0.0316 µM) was less than 5.00; the pIC50 (curve of first compound, second compound 0.1 µM) was less than 5.00; the negative-log IC50 (pIC50) (curve of first compound, second compound 0.316 µM) was less than 5.00; the negative logarithm of the IC50 (pIC50) (curve of first compound, second compound 1 µM) was less than 5.00; the pIC50 (curve of first compound, second compound 3.16 µM) was less than 5.00; the pIC50 (curve of first compound, second compound 10 µM) is less than 5.00. The viability, T/C (second compound 0.0316 µM, first compound 0.0316 µM) is 102%; the viability, T/C (second compound 0.0316 µM, first compound 0.1 µM) is 108%; the viability, T/C (second compound 0.0316 µM, first compound 0.316 µM) was 97.3%; the viability, T/C (second compound 0.0316 µM, first compound 1 µM) was 105%; the viability, T/C (second compound 0.0316 µM, first compound 3.16 µM) was 109%; the viability, T/C (second compound 0.0316 µM, first compound 10 µM) was 111%. The viability, T/C reads like this: (second compound 0.1 µM, first compound 0.0316 µM) 113%; (second compound 0.1 µM, first compound 0.1 µM) 118%; (second compound 0.1 µM, first compound 0.316 µM) 100%; (second compound 0.1 µM, first compound 1 µM) 95%; (second compound 0.1 µM, first compound 3.16 µM) 121%; (second compound 0.1 µM, first compound 10 µM) 100%. Moreover, the viability, T/C reads like this: (second compound 0.316 µM, first compound 0.0316 µM) 87.2%; (second compound 0.316 µM, first compound 0.1 µM) 120%; (second compound 0.316 µM, first compound 0.316 µM) 93.1%; (second compound 0.316 µM, first compound 1 µM) 85.1%; (second compound 0.316 µM, first compound 3.16 µM) 84.1%; (second compound 0.316 µM, first compound 10 µM) 105%. The viability, T/C runs as follows: (second compound 1 µM, first compound 0.0316 µM) 74.4%; (second compound 1 µM, first compound 0.1 µM) 110%; (second compound 1 µM, first compound 0.316 µM) 103%; (second compound 1 µM, first compound 1 µM) 98.3%; (second compound 1 µM, first compound 3.16 µM) 87.8%; (second compound 1 µM, first compound 10 µM) 122%. The viability, T/C was 110% (second compound 3.16 µM, first compound 0.0316 µM); 112% (second compound 3.16 µM, first compound 0.1 µM); 111% (second compound 3.16 µM, first compound 0.316 µM); 89% (second compound 3.16 µM, first compound 1 µM); 122% (second compound 3.16 µM, first compound 3.16 µM); 123% (second compound 3.16 µM, first compound 10 µM). Moreover, the viability, T/C (second compound 10 µM, first compound 0.0316 µM) is 89.6%; the viability, T/C (second compound 10 µM, first compound 0.1 µM) is 115%; the viability, T/C (second compound 10 µM, first compound 0.316 µM) was 106%; the viability, T/C (second compound 10 µM, first compound 1 µM) was 104%; the viability, T/C (second compound 10 µM, first compound 3.16 µM) was 85.7%; the viability, T/C (second compound 10 µM, first compound 10 µM) was 114%.
Regarding `CC[C@@]1(O)C(=O)OCc2c1cc1n(c2=O)Cc2cc3c(CN(C)C)c(O)ccc3nc2-1`, the viability, T/C was 98.5% and 99.4% and 113% (compound 0.000316 µM); 115% and 95.2% and 99.9% (compound 0.001 µM); 79.1% and 91.7% and 88.3% (compound 0.00316 µM); 71.2% and 80% and 87.5% (compound 0.01 µM); 66.7% and 63.9% and 53.9% (compound 0.0316 µM); 44.2% and 46.5% and 45.7% (compound 0.1 µM). Also, the pIC50 (curve of compound) is 7.12 and 7.10 and 7.18.

Values taken from PubChem BioAssay AID1963836 (Molecular Pharmacology Branch, DTP, NCI, 2024).
